These results are taken from patent US6800651B2 (Eli Lilly and Company, priority 2000, dated 2004).

Like-named read-outs stand apart in the source and are kept apart here. Marks after values point to notes of the source that are not given here.

The Ki is the equilibrium dissociation constant of an inhibitor or competing ligand from its target. Lower therefore signals tighter binding.

Assay [1] concerns Male Sprague-Dawley rats. Nature of the assay: Fear potentiated startle paradigm. Type of assay: in vivo. As to conditions: rat. The protocol:
Male Sprague-Dawley rats weighing 325-400 g were purchased from Harlan Sprague-Dawley, Inc. (Cumberland, Ind.) and given a one week acclimation period before testing. Rats were individually housed with food and water ad libitum in an animal room on a 12-hour light/dark cycle with lights on between 6:00 A.M. and 6:00 P.M. […] Control rats were given the respective vehicle. The fear potentiated startle paradigm is conducted over three consecutive days. All three days begin with a 5-minute adaptation period before the trial starts. On day one (baseline startle) after the adaptation period, the animal receives 30 trials of 120 dB auditory noise. The mean startle amplitude (Vmax) is used to assign animals to groups with similar means before conditioning begins. Day two consists of conditioning the animals. Each animal receives 0.5 mA of shock for 500 msec preceded by a 5 second presentation of light which remains on for the duration of the shock. Ten presentations of the light and shock are administered. Day three is the testing trial where drug administration occurs prior to testing. Twenty-four hours after conditioning, startle testing sessions are conducted. Ten trials of acoustic startle (120 dB), non-light paired, are presented at the beginning of the session. This is followed by 20 random trials of the noise alone and 20 random trials of noise preceded by light. […] Data is presented as the difference between light+noise and noise-alone. Differences in startle response amplitudes were analyzed by JMP statistical software using a One-way Anova (analysis of variance, t-test). Group differences were considered to be significant at p<0.05. In the experiment shown below the compound of Example 16 was given i.p. 30 minutes prior to testing.

Assay [2] has as its system Harlan Sprague-Dawley rats. Nature of the assay: Animal model of dural protein extravasation (trigeminal ganglion stimulation). The format is in vivo. As to conditions: rat, ratio stimulated/unstimulated side of dura. Here is the method: Harlan Sprague-Dawley rats (250-350 g) were anesthetized with sodium pentobarbital intraperitoneally (65 mg/kg) and placed in a stereotaxic frame (David Kopf Instruments) with the incisor bar set at −3.5 mm. Following a midline sagital scalp incision, two pairs of bilateral holes were drilled through the skull (6 mm posterially, 2.0 and 4.0 mm laterally, all coordinates referenced to bregma). Pairs of stainless steel stimulating electrodes, insulated except at the tips (Rhodes Medical Systems, Inc.), were lowered through the holes in both hemispheres to a depth of 9 mm. The femoral vein was exposed and a dose of the test compound was injected intravenously (i.v.) at a dosing volume of 1 ml/kg or, in the alternative, test compound was administered orally (p.o.) via gavage at a volume of 2 ml/kg. Approximately 8 minutes post i.v. injection, a 50 mg/kg dose of Evans Blue, a fluorescent dye, was also injected intravenously. The Evans Blue complexed with proteins in the blood and functioned as a marker for protein extravasation. […] Fifteen minutes following stimulation, the animals were killed and exsanguinated with 40 mL of saline. The top of the skull was removed to facilitate the collection of the dural membranes. The membrane samples were removed from both hemispheres, rinsed with water, and spread flat on microscopic slides. […] A fluorescence microscope (Zeiss) equipped with a grating monochromator and a spectrophotometer was used to quantify the amount of Evans Blue dye in each sample. An excitation wavelength of approximately 535 nm was utilized and the emission intensity at 600 nm was determined. The microscope was equipped with a motorized stage and also interfaced with a personal computer. This facilitated the computer-controlled movement of the stage with fluorescence measurements at 25 points ([…]) on each dural sample. The mean and standard deviation of the measurements were determined by the computer. The extravasation induced by the electrical stimulation of the trigeminal ganglion was an ipsilateral effect (i.e. occurs only on the side of the dura in which the trigeminal ganglion was stimulated). This allows the other (unstimulated) half of the dura to be used as a control. The ratio of the amount of extravasation in the dura from the stimulated side, over the amount of extravasation in the unstimulated side, was calculated.

Assay [3] deals with T1, mGlu2 receptor (Homo sapiens, UniProt Q14416). The experiment in a line: [3H]-2S-2-Amino-2-(1S,2S-2-carboxycyclopropan-1-yl)-3-(xanth-9-yl) propionic acid receptor binding (displacement), membranes of mGlu2 receptor expressing RGT cells. Set-up: expressed in transfected cells; host or cells: RGT cells (co-transfected with the rat glutamate/aspartate transporter GLAST); washed membranes. As to conditions: displacement of 1 nM [3H]-2S-2-amino-2-(1S,2S-2-carboxycyclopropan-1-yl)-3-(xanth-9-yl)propionic acid; homogenates of mGlu2 receptor expressing cell line.
T1 sequence (Q14416 19-872): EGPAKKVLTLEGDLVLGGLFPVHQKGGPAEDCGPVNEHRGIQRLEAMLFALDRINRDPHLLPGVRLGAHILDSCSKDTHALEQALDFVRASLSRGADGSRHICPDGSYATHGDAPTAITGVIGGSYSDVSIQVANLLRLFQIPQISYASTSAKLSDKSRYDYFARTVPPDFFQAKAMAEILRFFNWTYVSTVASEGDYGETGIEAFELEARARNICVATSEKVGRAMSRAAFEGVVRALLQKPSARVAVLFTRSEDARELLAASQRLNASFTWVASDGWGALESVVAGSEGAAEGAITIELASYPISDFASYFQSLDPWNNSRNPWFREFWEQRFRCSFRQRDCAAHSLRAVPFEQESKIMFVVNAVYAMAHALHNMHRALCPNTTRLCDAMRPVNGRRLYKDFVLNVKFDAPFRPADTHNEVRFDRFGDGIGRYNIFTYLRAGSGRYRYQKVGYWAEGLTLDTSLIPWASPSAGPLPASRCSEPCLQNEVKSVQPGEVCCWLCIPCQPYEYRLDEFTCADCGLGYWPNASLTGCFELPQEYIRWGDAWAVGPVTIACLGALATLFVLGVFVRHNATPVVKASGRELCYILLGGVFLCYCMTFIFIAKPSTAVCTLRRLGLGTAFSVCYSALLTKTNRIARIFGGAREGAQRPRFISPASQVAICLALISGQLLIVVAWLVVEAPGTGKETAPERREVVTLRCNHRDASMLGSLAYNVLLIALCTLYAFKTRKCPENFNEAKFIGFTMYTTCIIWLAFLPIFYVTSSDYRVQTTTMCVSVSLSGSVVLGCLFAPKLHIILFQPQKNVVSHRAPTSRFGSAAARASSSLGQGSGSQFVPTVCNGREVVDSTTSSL
Protocol: Membranes from mGlu2 receptor expressing RGT cells were prepared by harvesting adherent cells from confluent T-150 flasks with a cell scraper. Cells and media were then placed in 50 ml conical tubes and centrifuged at 4° C. at 1000 g for 5 minutes. The supernatant was removed and the pellet was frozen at −10° C. until use. Washed cell membranes were prepared by adding 20 ml of 10 mM potassium phosphate buffer pH 7.6 @ 5° C.+100 mM potassium bromide and homogenizing with an Ultra-Turrax tissuemizer for 15 seconds at 90% output. The homogenate was centrifuged at 48,000×g for 10 minutes at 5° C. This last step was repeated two times, and the final pellet was resuspended in 10 ml of the same buffer and reserved on ice until initiating the binding assay.
The incubation was initiated by the addition of the membrane suspension, (about 15 μg membrane protein), and allowed to continue on ice for 30 min. Incubation was terminated by rapid filtration with a Brandel cell harvester through glass fiber Whatman GF/B filters pre-wet with the same potassium phosphate buffer assay buffer (at 4° C.). The filters were washed five times with 1 ml of buffer. Filter sections were transferred to minivials and 5 ml of Fisher Scientific ScintiSafe liquid scintillation cocktail was added to each vial. Vials were allowed to set for several hours prior to counting on a Beckman LS6000 liquid scintillation counter.

The target of assay [4] is T1, mGlu2 receptor. Nature of the assay: Potentiation of glutamate-induced increase in intracellular calcium with a mGluR2 expressing cell line (FLIPR). Type of assay: cell-based. Set-up: expressed in transfected cells; host or cells: RGT cells (co-transfected with GLAST), stably transfected with Galpha15. As to conditions: read-out: % Maximal Response (mean ± SD, n=2). Here is the method:
Potentiation of Glutamate-Induced Increase in Intracellular Calcium with a mGluR2 Expressing Cell Line.
Cell lines expressing human mGlu2 receptors were derived as previously described (Desai, Burnett, Mayne, Schoepp, Mol. Pharmacol. 48, 648-657, 1995) and cultured in DMEM with 5% dialyzed fetal bovine serum, 1 mM glutamine, 1 mM sodium pyruvate, 50 μg/ml Geneticin G418, and 0.2 mg/ml hygromycin B. Confluent cultures were passaged weekly. […] The RGT cell line expressing the mGluR2 receptors was stably transfected with the promiscuous G-protein, Galpha15 to change the signaling pathway to the mGlu2 receptor to one that could be easily measured through release of intracellular calcium. Thus, intracellular calcium levels were monitored before and after the addition of drugs on a Fluorometric Imaging Plate Reader (i.e. FLIPR, Molecular Devices). The following buffer was used throughout as an assay buffer: 10 mM KCl, 138 mM NaCl, 5 mM Ca Cl2, 1 mM MgCl2, 4 mM NaH2PO4, 10 mM Glucose, 10 mM HEPES, pH 7.4. Cells that had been plated 48 h prior at a density of 30-40,000 cells per well in a 96-well plate were loaded with a calcium-sensitive dye for 90 min at 25° C. Fluo-3 (2 mM in DMSO, Molecular Probes) were mixed with a equal volume of 10% pluronic acid in DMSO, and diluted to 8 μM into the buffer described above containing 10% fetal bovine serum to make the loading buffer. Following loading of the cells, the loading buffer was removed and replaced with assay buffer prior to drug addition and monitoring on the FLIPR.

Consider `COc1ccccc1Oc1ccc(N(Cc2cccnc2)S(=O)(=O)CC(F)(F)F)cc1` [Example 16, N-(4-(2-Methoxyphenoxy)phenyl)-N-(2,2,2-trifluoroethylsulfonyl)pyrid-3-ylmethylamine], for which the “Difference in Startle Amplitude (Vmax) + S.E.” value in assay [1] (Exp. 1, 0.03 mg/kg i.p. 30 minutes prior to testing, light+noise minus noise-alone) was 108 + 41; in assay [1] (Exp. 1, 0.3 mg/kg i.p. 30 minutes prior to testing), 154 + 38; in assay [1] (Exp. 1, 3.0 mg/kg i.p. 30 minutes prior to testing), 21 + 24*; in assay [1] (Exp. 2, 1.0 mg/kg i.p. 30 minutes prior to testing), 120 + 87*; in assay [1] (Exp. 2, 3.0 mg/kg i.p. 30 minutes prior to testing), 148 + 86*; in assay [1] (Exp. 2, 10.0 mg/kg i.p. 30 minutes prior to testing) it was 105 + 91*. Also, the “Extrav. Ratio ± s.e.m.” value was found to be 1.87 ± 0.07 in assay [2] (10 pg/kg i.v.), 1.37 ± 0.07 in assay [2] (100 pg/kg i.v.), 1.04 ± 0.05 in assay [2] (1 ng/kg i.v.) and 0.99 ± 0.004 in assay [2] (100 ng/kg i.v.). Further, in assay [3], the Ki is over 100 µM. Also, the Emax amounted to 2.8 ± 1.9% in assay [4] (8 nM Glutamate + 1 μM compound); 0.1 ± 0.8% in assay [4] (24 nM Glutamate + 1 μM compound); 0.3 ± 1.1% in assay [4] (80 nM Glutamate + 1 μM compound); 17.4 ± 2.8% in assay [4] (240 nM Glutamate + 1 μM compound); 62.9 ± 0.1% in assay [4] (800 nM Glutamate + 1 μM compound); 92.5 ± 4.4% in assay [4] (2.4 μM Glutamate + 1 μM compound). Moreover, the Emax in assay [4] (8 μM Glutamate + 1 μM compound) is 98.4 ± 6.4%; in assay [4] (24 μM Glutamate + 1 μM compound), 95.4 ± 2.4%. Moreover, in assay [4] (1 μM compound, Buffer (no agonist), glutamate series 24 μM to 8 nM), the Emax at 1 µM is 1.6 ± 1%.
